According to BindingDB's records for PubMed 11602678 (Otsuka Maryland Research Institute, 2001):

Experiments:
[1] = biological target: T1, Alpha-2A adrenergic receptor [16-465] (Rattus norvegicus, UniProt P22909)
T1 construct: 16-465
T1 sequence (P22909 whole entry): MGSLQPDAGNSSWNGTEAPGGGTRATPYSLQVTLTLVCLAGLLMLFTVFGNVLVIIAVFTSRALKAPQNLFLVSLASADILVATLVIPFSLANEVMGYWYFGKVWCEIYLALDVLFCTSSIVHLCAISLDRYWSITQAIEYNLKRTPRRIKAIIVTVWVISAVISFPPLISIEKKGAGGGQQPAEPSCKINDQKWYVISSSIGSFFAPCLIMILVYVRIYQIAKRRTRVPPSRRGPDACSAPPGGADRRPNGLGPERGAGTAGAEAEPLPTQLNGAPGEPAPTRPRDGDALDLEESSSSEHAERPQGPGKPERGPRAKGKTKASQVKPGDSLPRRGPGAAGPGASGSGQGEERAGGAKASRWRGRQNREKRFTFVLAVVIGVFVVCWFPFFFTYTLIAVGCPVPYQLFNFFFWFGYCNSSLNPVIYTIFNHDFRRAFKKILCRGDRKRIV

[2] = biological target: T2, Alpha-2C adrenergic receptor (Rattus norvegicus, UniProt P22086)
T2 sequence (P22086 whole entry): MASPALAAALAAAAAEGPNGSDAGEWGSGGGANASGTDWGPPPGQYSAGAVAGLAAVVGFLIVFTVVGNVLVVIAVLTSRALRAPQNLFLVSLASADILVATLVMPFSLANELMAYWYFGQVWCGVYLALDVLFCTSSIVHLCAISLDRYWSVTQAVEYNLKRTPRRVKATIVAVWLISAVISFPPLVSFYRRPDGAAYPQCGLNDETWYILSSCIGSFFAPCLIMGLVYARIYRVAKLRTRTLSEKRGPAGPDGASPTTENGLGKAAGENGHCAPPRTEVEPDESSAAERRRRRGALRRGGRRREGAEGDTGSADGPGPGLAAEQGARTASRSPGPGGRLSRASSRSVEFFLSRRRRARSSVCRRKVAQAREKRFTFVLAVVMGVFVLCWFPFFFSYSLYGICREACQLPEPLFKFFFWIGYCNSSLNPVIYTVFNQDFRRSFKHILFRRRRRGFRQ

Ki [1]: 3840 nM | Ki [2]: 13.7 nM
SMILES: CCC(=O)Nc1c(C)cc(C(=O)N2CCC(N(C)CCc3ccccc3)CC2)cc1C [NSC_219019]
